According to patent US8999935B2, “Treatment of osteoporosis in peri- and post-menopausal women with hepcidin” (New York University, priority 2009, dated 2015):

Experiments:
C2C12 cells = assay: C2C12 cell proliferation; assay type: cell-based, mouse; settings: 3 and 5 days
Procedure: To investigate whether increased iron levels affect the balance between bone formation and bone resorption, mouse osteoblasts C2C12 and osteoclasts Raw 264.7 cells were cultured in the two distinct media. […] In other experiments, the iron chelator deferoxamine (DFO), promoted alkaline phosphatase production, whereas ferritin diminished it. […] To further search how increased iron affect osteoblasts, C2C12 cells were grown in the presence of E2 or iron over a period of 3 and 5 days. Cell proliferation was then measured.

[1] = tested on: mouse osteoblast C2C12 cells; assay: Alkaline phosphatase (osteoblast differentiation) in C2C12 cells; assay type: cell-based
Procedure: FIGS. 18A-F show differences in alkaline phosphates (ALP) activities in mouse osteoblast C2C12 cells grown in medium only (FIG. 18A), with bone morphorgenetic protein-2 (BMP-2) (FIG. 18B), under the pre-menopausal (FIG. 18C), post-menopausal (FIG. 18D), with ferritin (FIG. 18E), and with deferoxamine (DFO) (FIG. 18F). DFO, an iron chelator, (10 μM) or ferritin alone (20 ng/mL) was used in the presence of BMP-2 at 50 ng/ml.
Due to the deficit of appropriate animal models that recapitulate estrogen and iron conditions in vivo, and the inherent difficulty of eliminating confounding variables with study in human subjects, applicants developed two cell culture models to test whether increase in body iron contributes to menopausal symptoms and diseases (FIG. 4). The concentration of 17β-estradiol (E2) were set at levels equivalent to breast tissue levels under pre-menopausal conditions (Parl F. F., “Estrogens, Estrogen Receptor and Breast Cancer,” Oxford: IOS Press, (2000), which is hereby incorporated by reference in its entirety). Ferritin levels were equal to 10% serum, given that the physiological upper limit of serum ferritin is 200 ng/ml. […]
To investigate whether increased iron levels affect the balance between bone formation and bone resorption, mouse osteoblasts C2C12 and osteoclasts Raw 264.7 cells were cultured in the two distinct media. […] Cell proliferation was then measured.

MCF-7 cells = assay: VEGF formation in MCF-7 cell cultures; assay type: cell-based; settings: 24-hr treatment
Text: Due to the deficit of appropriate animal models that recapitulate estrogen and iron conditions in vivo, and the inherent difficulty of eliminating confounding variables with study in human subjects, applicants developed two cell culture models to test whether increase in body iron contributes to menopausal symptoms and diseases (FIG. 4). The concentration of 17β-estradiol (E2) were set at levels equivalent to breast tissue levels under pre-menopausal conditions (Parl F. F., “Estrogens, Estrogen Receptor and Breast Cancer,” Oxford: IOS Press, (2000), which is hereby incorporated by reference in its entirety). Ferritin levels were equal to 10% serum, given that the physiological upper limit of serum ferritin is 200 ng/ml. Twenty ng/ml of ferritin was used in the culture media. Transferrin was added in its wholly unsaturated form (apo-transferrin), or its fully 100% iron saturated (holo-transferrin), at 5 μg/ml, to the pre- and post-menopausal conditions, respectively. Serum-free alpha minimum essential medium (α-MEM) was used as the base medium for breast cancer MCF-7 cells, osteoblast progenitor C2C12 cells, and osteoclast progenitor Raw 264.7 cells. MCF-7 was supplemented with selenium (5 ng/ml) and insulin (5 μg/ml). C2C12 and Raw 264.7 cells were supplemented with bone morphorgenetic protein-2 (BMP-2) and receptor activator of nuclear factor kappa B ligand (RANKL) to stimulate their differentiation and maturation to ostoeblasts and osteoclasts, respectively. Epilife® basal medium was used for the culture of primary normal human epidermal keratinocytes (NHEK) cells.
E2, transferrin, and ferritin were analyzed separately in MCF-7 cell cultures to determine their relative contribution to alterations in VEGF levels.

CYP1B1 = CYP1B1 mRNA induction in MCF-12A cells; assay type: cell-based, human; settings: ferritin at as little as 10 ng/ml
Text: (§1) It was also investigated whether increased iron as a result of menopause affects estrogen metabolisms. It is known that 95% of serum E2 in premenopausal women is derived from ovarian secretion and subsequently distributed through the bloodstream in an endocrine fashion. Almost all of the circulating E2 in postmenopausal women is from extragonadal conversion of C19 steroid precursors, principally weak adrenal androgens (FIG. 26). The conversion occurs locally in tissues such as adipose and bone marrow and E2 acts in a paracrine fashion. […] The first step in the metabolism of estrogens is the hydroxylation catalyzed by cytochrome P450 enzymes such as CYP1A1 and CYP1B1, leading to the formation of 2-hydroxyl-E2 (2-OH-E2) and 4-OH-E2, respectively (Tsuchiya et al., “Cytochrome P450-mediated Metabolism of Estrogens and Its Regulation In Humans,” Cancer Leu 227, 115-24 (2005), which is hereby incorporated by reference in its entirety).

CYP1A1 = CYP1A1 mRNA induction in MCF-12A cells; assay type: cell-based, human; settings: ferritin at as little as 10 ng/ml
Text: as §1

CYP19A1 = CYP19A1 mRNA induction in MCF-12A cells; assay type: cell-based, human; settings: ferritin at as little as 10 ng/ml
Text: as §1

[2] = Effects of hepcidin on mice: serum iron and transferrin saturation after 8 weeks of i.p. treatment; assay type: in vivo; settings: 1.5 mg/kg i.p. twice a week for 8 weeks, versus control mice or mice treated with DFO
Procedure: Human body has many ways to absorb, transfer, and store iron but has no effective ways to excrete it (Andrews N. C., “Disorders of Iron Metabolism,” N Engl J Med 341:1986-95 (1999), which is hereby incorporated by reference in its entirety). Menstruation, which can get rid of iron in young premenopausal women, is not optional in older postmenopausal women. Therefore, hepcidin and deferoxamine (DFO), a FDA-approved iron chelator, were tested to see whether hepcidin or DFO can inhibit iron absorption and decrease body iron levels. After overnight fasting, mice were injected intra-peritoneally (i.p.), twice a week, with hepcidin at 1.5 mg/kg, DFO at 400 mg/kg, or saline (control) with 10 mice per group. After 8 weeks consecutive treatment, mice were sacrificed and blood were collected by heart puncture. Serum samples were used for measurements of serum iron and transferrin saturation.

[3] = mice, single 50 μg intraperitoneal injection, for 3 days; cited from earlier work

In the case of `C[C@]12CC[C@@H]3c4ccc(O)cc4CC[C@H]3[C@@H]1CC[C@@H]2O` [E2, 17β-estradiol], the cell proliferation (C2C12 cells) is reported as “did not increase”, the “osteoblast differentiation, as measured by alkaline phosphates activity” value ([1]; C2C12 cells) is reported as “slightly stimulated” and the VEGF formation (MCF-7 cells; various concentrations) is reported as “some increase”.
With “transferrin: iron transport protein with two binding sites for iron, tested at different iron saturation” the VEGF formation (MCF-7 cells; transferrin 5 μg/ml at various iron saturation levels) was “no effect”.
For ferritin, the “CYP1B1 mRNA levels” value (CYP1B1) was “significantly increased”, the “CYP1A1 mRNA levels” value (CYP1A1) was “significantly increased” and the “CYP19A1 mRNA levels” value (CYP19A1) was “not”. For the same compound, the alkaline phosphatase production ([1]; C2C12 cells with BMP-2 at 50 ng/ml, DFO 10 μM, ferritin 20 ng/mL) was “diminished” and the VEGF formation (MCF-7 cells; various concentrations) was “significantly decreases”.
In the case of “apo-transferrin: transferrin in its wholly unsaturated form, without iron in it”, the VEGF formation (MCF-7 cells; various concentrations) is reported as “no effect”.
With “hepcidin: peptide hormone, principal regulator of iron homeostasis; binds ferroportin (DTHFPICIFCCGCCHRSKCGMCCKT; listed as Homo sapiens)” the “levels of serum iron” value [2] was “significantly lower” and the transferrin saturation [2] was “significantly lower”.
For “Asp-Thr-His-Phe-Pro-Ile-Cys-Ile-Phe-Cys-Cys-Gly-Cys-Cys-His-Arg-Ser-Lys-Cys-Gly-Met-Cys-Cys-Lys-Thr (DTHFPICIFCCGCCHRSKCGMCCKT; listed as Homo sapiens) [human hepcidin]”, the “fall in serum iron” value [3] is given as 70%.
